Changes are numbered by the printed parent chain.

The first assay deals with T1, androgen receptor in MDA-MB453-MMTV clone 54-19 cells (Homo sapiens, UniProt P10275).
T1 sequence (P10275 1-920 Q868H): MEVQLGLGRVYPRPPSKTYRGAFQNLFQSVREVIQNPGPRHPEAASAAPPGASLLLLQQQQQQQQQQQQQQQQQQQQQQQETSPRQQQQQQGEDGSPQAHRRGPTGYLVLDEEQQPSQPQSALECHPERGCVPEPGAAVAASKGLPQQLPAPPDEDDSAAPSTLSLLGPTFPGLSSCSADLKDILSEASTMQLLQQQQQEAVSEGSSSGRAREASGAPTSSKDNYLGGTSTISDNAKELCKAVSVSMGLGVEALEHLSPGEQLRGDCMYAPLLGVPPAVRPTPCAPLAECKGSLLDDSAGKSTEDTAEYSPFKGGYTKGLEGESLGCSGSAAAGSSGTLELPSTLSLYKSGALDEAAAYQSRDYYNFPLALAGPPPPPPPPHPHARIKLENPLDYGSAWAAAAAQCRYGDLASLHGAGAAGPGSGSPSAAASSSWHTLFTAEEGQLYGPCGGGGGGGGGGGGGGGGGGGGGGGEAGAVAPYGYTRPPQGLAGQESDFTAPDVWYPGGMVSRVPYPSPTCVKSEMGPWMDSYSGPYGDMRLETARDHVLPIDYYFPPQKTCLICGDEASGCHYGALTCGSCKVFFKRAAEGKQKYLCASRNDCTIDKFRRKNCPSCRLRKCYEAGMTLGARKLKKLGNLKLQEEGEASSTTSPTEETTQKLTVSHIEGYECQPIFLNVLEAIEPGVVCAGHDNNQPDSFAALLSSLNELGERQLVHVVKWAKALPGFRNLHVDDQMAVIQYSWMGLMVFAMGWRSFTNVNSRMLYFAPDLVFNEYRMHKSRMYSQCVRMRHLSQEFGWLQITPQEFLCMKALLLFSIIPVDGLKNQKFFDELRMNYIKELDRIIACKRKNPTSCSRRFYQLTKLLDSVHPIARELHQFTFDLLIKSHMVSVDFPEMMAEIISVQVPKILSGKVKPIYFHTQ
The experiment in a line: AR antagonist cell assay (MMTV-luciferase reporter). The assay is classed as cell-based. The conditions noted are these: MDA-MB453-MMTV clone 54-19, inhibition of DHT induced luciferase, 17 hr; mean of multiple tests; read-out: AR Cell IC50. The method, then:
The compounds ability to antagonize the effects of androgen on the androgen receptor were determined in a whole cell assay as described immediately below.
This cell line is a stable transfected cell line with MDA-MB453 cell background (a human breast tumor cell line expressing androgen receptor). A MMTV minimal promoter containing ARE was first cloned in front of a firefly luciferase reporter gene. Then the cascade was cloned into transfection vector pUV120puro. […] Puromycin resistant stable cell line was selected.
Plating medium: DMEM (phenol red free), 10% charcoal treated HyClone serum, 1% L-glutamine
Assay medium: DMEM (phenol red free), 1% charcoal treated HyClone serum, 1% L-glutamine, and 1% penicillin/streptomycin
Assay procedure: • 1. Cells are maintained in culture medium, splitting cells when they reach 80-90% confluence • 2. To test compounds, 10,000 cells/well are plated to opaque 96 cell culture plate in 100 ul/well plating medium, culture for overnight at 37° C. in cell culture incubator • 3. […] Add 10 ul/well freshly prepared DHT (final concentration at […]) to each well, incubate at 37° C. for 17 hr (overnight) • 5.
The results are reported as the mean of multiple tests as described below (the numbers of tests are indicated in the footnote). N.D. denotes that the compound was not tested.
On the technique in general: Reporter assays use an easily measured gene product as a stand-in for the process of interest.
Usually IC50 stands for the concentration needed to halve the response being measured. In the case of `N#Cc1ccc(Oc2ccccc2C(N)=O)cc1Cl` [Example 8, 2-(3-Chloro-4-cyano-phenoxy)-benzamide], the IC50 is above 1000 nM.

Still in this assay, the particulars now being: read-out: AR Cell IC50; MDA-MB453-MMTV clone 54-19, inhibition of DHT induced luciferase, 17 hr; mean of multiple tests.
On to `CSc1ccccc1Oc1ccc(C#N)c(Cl)c1` [Example 3, 2-Chloro-4-(2-methylsulfanyl-phenoxy)-benzonitrile], for which the IC50 is below 0.32 nM.

A further assay deals with T2, hAR (human androgen receptor) (Homo sapiens, UniProt P10275).
T2 construct: made in house; host or cells: baculovirus/Sf9 insect cells (crude extract)
T2 sequence (P10275 1-920): T1 sequence (P10275 1-920 Q868H) with H868Q
The experiment in a line: Competitive hAR binding assay with 3H-DHT tracer.
Conditions: not given
The method, then:
The description below describes how the assay was carried out.
Competitive binding analysis was performed on baculovirus/Sf9 generated hAR extracts in the presence or absence of different concentrations of test agent and a fixed concentration of ^3H-dihydrotestosterone (3H-DHT) as tracer. […] Subsequently, the binding reactions are washed three times to completely remove excess unbound ^3H-DHT. hAR bound ^3H-DHT levels are determined in the presence of compounds (i.e. competitive binding) and compared to levels bound when no competitor is present (i.e. maximum binding). Compound binding affinity to the hAR is expressed as the concentration of compound at which one half of the maximum binding is inhibited.
Consider `CSc1ccccc1Oc1ccc(C#N)c(Cl)c1` [Example 3, 2-Chloro-4-(2-methylsulfanyl-phenoxy)-benzonitrile], for which the IC50 came to 47 nM.

Regarding `Cc1ccc(F)c(Oc2ccc(C#N)cc2Cl)c1F` [Example 6, 3-Chloro-(2,6-difluro-5-methyl-phenoxy)benzonitrile], the IC50 stood at 59 nM. For `CCOc1ccccc1Oc1ccc(C#N)c(Cl)c1` [Example 70, 2-Chloro-4-(2-ethoxy-phenoxy)-benzonitrile], the IC50 is 19 nM.

In the case of `CC(N)c1cc(F)ccc1Oc1ccc(C#N)c(C(F)(F)F)c1` (stereo not shown) [Example 122, 4-[2-(1-aminoethyl)-4-fluoro-phenoxy]-2-trifluoromethyl-benzonitrile], the IC50 stood at 2 nM.

The assay is the same for the next values; noted with them: baculovirus/Sf9 hAR extract, 1 nM 3H-DHT, one hour at 4° C; mean of multiple tests; read-out: AR Binding IC50.
As to `CCSc1ccccc1Oc1ccc(C#N)cc1Cl` [Example 1, 3-Chloro-4-(2-ethylsulfanyl-phenoxy)-benzonitrile], the IC50 was 281 nM. For `N#Cc1ccc(Oc2ccccc2[N+](=O)[O-])c(Cl)c1` [Example 2, 3-Chloro-4-(2-nitro-phenoxy)-benzonitrile], the IC50 was determined as 472 nM. Consider `N#Cc1ccc(Oc2ccccc2C(N)=O)cc1Cl` [Example 8, 2-(3-Chloro-4-cyano-phenoxy)-benzamide], for which the IC50 was determined as 222 nM. Same read-out and setting: the figure for `Cc1ccc(C)c(Oc2ccc(C#N)cc2Cl)c1` [Example 9, 3-Chloro-4-(2,5-dimethyl-phenoxy)-benzonitrile] is 356 nM; for `C=CCc1cccc(C)c1Oc1ccc(C#N)cc1Cl` [Example 11, 4-(2-Allyl-6-methyl-phenoxy)-3-chloro-benzonitrile] it is 242 nM. On to `Cc1ccc(C(C)C)c(Oc2ccc(C#N)cc2Cl)c1` [Example 14, 3-Chloro-4-(2-isopropyl-5-methyl-phenoxy)-benzonitrile], for which the IC50 came out at 375 nM. For the molecule `CCN(CC)C(=O)c1ccccc1Oc1ccc(C#N)cc1Cl` [Example 18, 2-(2-Chloro-4-cyano-phenoxy)-N,N-diethyl-benzamide], the IC50 was found to be 402 nM. `Cc1ccc(Oc2ccc(C#N)cc2Cl)c(C)c1` [Example 21, 3-Chloro-4-(2,4-dimethyl-phenoxy)-benzonitrile]: the IC50 was determined as 263 nM.

Turning to `COc1ccc(C)cc1Oc1ccc(C#N)cc1Cl` [Example 22, 3-Chloro-4-(2-methoxy-5-methyl-phenoxy)-benzonitrile], the IC50 worked out at 491 nM. Turning to `Cc1cccc(Oc2ccc(C#N)cc2Cl)c1` [Example 28, 3-Chloro-4-m-tolyloxy-benzonitrile], the IC50 is 412 nM. In the case of `N#Cc1ccc(Oc2ccc3c(c2)CCC3)cc1Cl` [Example 43, 2-Chloro-4-(indan-5-yloxy)-benzonitrile], the concentration for half-maximal inhibition (IC50) turned out to be 439 nM. For the molecule `CCOC(=O)c1ccc(Oc2ccc(C#N)c(Cl)c2)c(OC)c1` [Example 55, 4-(3-Chloro-4-cyano-phenoxy)-3-methoxy-benzoic acid ethyl ester], the IC50 worked out at 300 nM. On the same count and under the same terms, to `Cc1ccc(-c2ccc(Oc3ccc(C#N)c(Cl)c3)c(C)c2)cc1` [Example 58, 2-Chloro-4-(3,4′-dimethyl-biphenyl-4-yloxy)-benzonitrile] belongs 436 nM; to `Cc1ccc(Oc2ccc(C#N)c(Cl)c2)c(Cc2ccccc2)c1` [Example 62, 4-(2-Benzyl-4-methyl-phenoxy)-2-chloro-benzonitrile], 326 nM. As for `CCOc1ccccc1Oc1ccc(C#N)cc1Cl` [Example 71, 3-Chloro-4-(2-ethoxy-phenoxy)-benzonitrile], the IC50 was 299 nM. For the molecule `N#Cc1ccc(Oc2cccc3ccccc23)c(Cl)c1` [Example 72, 3-Chloro-4-(naphthalen-1-yloxy)-benzonitrile], the IC50 is 478 nM. For the molecule `Cc1ccc(Oc2ccc(C#N)c(Cl)c2)c(C(C)(C)C)c1` [Example 73, 4-(2-tert-Butyl-4-methyl-phenoxy)-2-chloro-benzonitrile], the IC50 worked out at 253 nM.

Consider `COc1cc(C(C)=O)ccc1Oc1ccc(C#N)c(C(F)(F)F)c1` [Example 74, 4-(4-Acetyl-2-methoxy-phenoxy)-2-trifluoromethyl-benzonitrile], for which the IC50 is 1480 nM.

For the molecule `CC(=O)c1ccc(Oc2ccc(C#N)c(C(F)(F)F)c2)cc1` [Example 75, 4-(4-Acetyl-phenoxy)-2-trifluoromethyl-benzonitrile], the IC50 stood at 443 nM.

As for `N#Cc1ccc(Oc2ccccc2[N+](=O)[O-])cc1C(F)(F)F` [Example 77, 4-(2-Nitro-phenoxy)-2-trifluoromethyl-benzonitrile], the IC50 turned out to be 458 nM. With `CCN(CC)Cc1c(C)ccc(C)c1Oc1ccc(C#N)c(C(F)(F)F)c1` [Example 89, 4-(2-Diethylaminomethyl-3,6-dimethyl-phenoxy)-2-trifluoromethyl-benzonitrile], the IC50 is 255 nM. `N#Cc1ccc(Oc2ccccc2OCc2ccccc2)cc1C(F)(F)F` [Example 92, 4-(2-Benzyloxy-phenoxy)-2-trifluoromethyl-benzonitrile]: the IC50 was found to be 361 nM.

Take `N#Cc1ccccc1Oc1ccc(C#N)c(C(F)(F)F)c1` [Example 112, 4-(2-Cyano-phenoxy)-2-trifluoromethyl-benzonitrile]: the IC50 came to 315 nM.

For the molecule `C[C@H](O)CNC(=O)c1ccccc1Oc1ccc(C#N)c(C(F)(F)F)c1` [Example 113, 2-(4-Cyano-3-trifluoromethyl-phenoxy)-N-(2-hydroxy-propyl)-benzamide], the IC50 is 353 nM.

For `CC(C)(CO)CNC(=O)c1ccccc1Oc1ccc(C#N)c(C(F)(F)F)c1` [Example 114, 2-(4-Cyano-3-trifluoromethyl-phenoxy)-N-(3-hydroxy-2,2-dimethyl-propyl)-benzamide], the IC50 came to 402 nM.

Values taken from patent US20090105349A1, “ANDROGEN MODULATORS” (WARNER-LAMBERT COMPANY LLC, priority 2004, published 2009).
